Reference: ChEMBL document CHEMBL1828590 (J Med Chem, 2011)

Tests used:
A2780 = assay: Antitumor activity against human A2780 cells xenografted in nude BALB/c mouse assessed as tumor growth inhibition at 50 mg/kg, po qd for 21 days measured on day 9; type: functional; settings: read-out: TGI
HCT-116 = assay: Antitumor activity against human HCT116 cells xenografted in nude BALB/c mouse assessed as tumor growth inhibition at 100 mg/kg, po qd for 21 days measured on day 18; type: functional; settings: read-out: TGI
[1] = Apparent oral clearance in Wistar rat at 10 mg/kg, po; type: ADME, organism-based; design: dose 10 mg/kg, route oral; settings: in vivo
[2] = Plasma protein binding in human at 1000 ng/mL; type: ADME, cell-free; settings: read-out: PPB (converted)
[3] = Plasma protein binding in rat at 1000 ng/mL; type: ADME, cell-free; settings: read-out: PPB (converted)
[4] = Time required for attaining concentration above IC50 of HDAC1 in tumor of nude BALB/c mouse xenografted with HCT116 cells at 100 mg/kg, po administered as single dose; type: ADME, organism-based, Neoplasm, HCT-116; design: dose 100 mg/kg, route oral; settings: in vivo
Mus musculus [5] = assay: Toxicity in nude BALB/c mouse xenografted with human HCT116 cells assessed as mouse survival at 200 mg/kg, po QD for 21 days measured on day 22; type: organism-based, HCT-116; design: dose 200 mg/kg, route oral; settings: in vivo, 504 h
Mus musculus [6] = assay: Toxicity in nude BALB/c mouse xenografted with human PC3 cells assessed as mortality at 50 mg/kg, po QD for 21 days measured on day 22; type: organism-based, PC-3; design: dose 50 mg/kg, route oral; settings: in vivo, 504 h
Mus musculus [7] = assay: Toxicity in nude BALB/c mouse xenografted with human MV4-11 cells assessed as mortality at 50 mg/kg, po QD for 21 days measured on day 21; type: organism-based; design: dose 50 mg/kg, route oral; settings: in vivo, 504 h
[8] = Apparent permeability from basolateral to apical side of human Caco2 cells; type: ADME, cell-based; settings: Caco-2
[9] = target: Voltage-gated inwardly rectifying potassium channel KCNH2 (Homo sapiens, UniProt Q12809); assay: Displacement of [3H]-dofetilide from human ERG receptor at 10 uM
[10] = Apparent oral clearance in Beagle dog at 2 mg/kg, iv; type: ADME, organism-based, Canis lupus familiaris; design: dose 2 mg/kg; settings: in vivo
Mus musculus [11] = assay: Toxicity in nude BALB/c mouse xenografted with human HCT116 cells assessed as body weight loss at 50 mg/kg, po QD for 21 days measured on day 17; type: organism-based, HCT-116; design: dose 50 mg/kg, route oral; settings: in vivo, 504 h
Ramos = assay: Antiproliferative activity against human Ramos cells; type: functional, cell-based
Mus musculus [12] = assay: Toxicity in nude BALB/c mouse xenografted with human A2780 cells assessed as maximum body weight loss at 100 mg/kg, po QD for 21 days measured on day 20; type: organism-based; design: dose 100 mg/kg, route oral; settings: in vivo, 504 h
Mus musculus [13] = assay: Toxicity in nude BALB/c mouse xenografted with human A2780 cells assessed as mortality at 50 mg/kg, po QD for 21 days measured on day 9; type: organism-based; design: dose 50 mg/kg, route oral; settings: in vivo, 504 h
Mus musculus [14] = assay: Toxicity in nude BALB/c mouse xenografted with human MV4-11 cells assessed as maximum body weight loss at 50 mg/kg, po QD for 21 days measured on day 19; type: organism-based; design: dose 50 mg/kg, route oral; settings: in vivo, 504 h
[15] = Terminal half life in Beagle dog at 2 mg/kg, iv; type: ADME, organism-based, Canis lupus familiaris; design: dose 2 mg/kg, route intravenous; settings: in vivo, read-out: beta t1/2 (converted)
Mus musculus [16] = assay: Toxicity in po dosed athymic nu/nu Harlan mouse with xenografted human HCT116 cells assessed as treatment-related mortality at 200 mg/kg,; type: organism-based, HCT-116; design: dose 200 mg/kg, route oral; settings: in vivo

Sequence of Voltage-gated inwardly rectifying potassium channel KCNH2 (Q12809 whole entry): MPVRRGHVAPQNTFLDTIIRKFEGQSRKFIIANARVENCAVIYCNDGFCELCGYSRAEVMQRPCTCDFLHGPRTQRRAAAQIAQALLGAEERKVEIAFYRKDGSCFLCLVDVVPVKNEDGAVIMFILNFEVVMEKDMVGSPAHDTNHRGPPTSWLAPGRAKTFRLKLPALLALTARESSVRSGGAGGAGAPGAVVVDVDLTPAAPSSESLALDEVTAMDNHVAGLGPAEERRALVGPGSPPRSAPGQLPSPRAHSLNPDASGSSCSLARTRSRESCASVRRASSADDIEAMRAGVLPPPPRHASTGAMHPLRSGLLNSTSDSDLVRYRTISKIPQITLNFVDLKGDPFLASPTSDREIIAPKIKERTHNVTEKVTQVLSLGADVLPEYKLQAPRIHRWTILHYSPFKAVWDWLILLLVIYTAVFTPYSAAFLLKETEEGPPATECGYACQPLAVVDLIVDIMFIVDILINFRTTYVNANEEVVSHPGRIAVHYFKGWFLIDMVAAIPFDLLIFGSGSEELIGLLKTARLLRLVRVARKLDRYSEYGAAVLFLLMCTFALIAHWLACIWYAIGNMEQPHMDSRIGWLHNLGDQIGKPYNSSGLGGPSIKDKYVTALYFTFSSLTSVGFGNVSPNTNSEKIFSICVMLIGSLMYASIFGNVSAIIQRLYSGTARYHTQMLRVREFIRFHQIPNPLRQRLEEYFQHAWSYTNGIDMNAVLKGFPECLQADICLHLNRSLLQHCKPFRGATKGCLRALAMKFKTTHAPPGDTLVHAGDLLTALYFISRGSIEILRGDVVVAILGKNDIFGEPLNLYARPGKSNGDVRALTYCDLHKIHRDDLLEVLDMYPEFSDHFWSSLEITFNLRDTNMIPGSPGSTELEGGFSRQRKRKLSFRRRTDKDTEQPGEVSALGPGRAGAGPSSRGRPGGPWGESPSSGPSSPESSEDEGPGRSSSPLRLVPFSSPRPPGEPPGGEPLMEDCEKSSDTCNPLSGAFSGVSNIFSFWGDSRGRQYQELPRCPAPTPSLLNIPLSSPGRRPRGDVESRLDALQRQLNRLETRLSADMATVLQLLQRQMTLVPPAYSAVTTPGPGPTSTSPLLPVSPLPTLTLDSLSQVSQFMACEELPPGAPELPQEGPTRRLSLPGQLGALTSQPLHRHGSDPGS

In the case of `CCCCc1nc2cc(/C=C/C(=O)NO)ccc2n1CCN(CC)CC.Cl.Cl`, the inhibition in vivo at 50 mg/kg (A2780) is reported as 44%, the inhibition in vivo at 100 mg/kg (HCT-116) is reported as 98% and the CL/F [1] is reported as 2550 mL/min/kg. It also gave a fraction unbound at 1000 ng/mL [2] of 0.082, a fraction unbound at 1000 ng/mL [3] of 0.07 and a Time [4] of 16 h. For the same compound, the Activity (Mus musculus [5]) was “Toxic”, the Activity (Mus musculus [6]) was “Non-toxic” and the Activity (Mus musculus [7]) was “Non-toxic”. For the same compound, the Papp B→A [8] was 19.4 ×10⁻⁶ cm/s, the “inhibition (INH)” value [9] was “Not Active” and the CL/F [10] was 24.2 mL/min/kg. For the same compound, the Activity (Mus musculus [11]) was 6.4%, the IC50 (Ramos) was 140 nM and the Activity (Mus musculus [12]) was 20%. For the same compound, the Activity (Mus musculus [13]) was “Non-toxic”, the Activity (Mus musculus [14]) was 7.1% and the half-life [15] was 3.9 h.

With `CCCCCCc1nc2cc(/C=C/C(=O)NO)ccc2n1CCN(C)C` the Activity (Mus musculus [16]) was “Toxic”.
